Test results taken from patent US20220324865A1 (Bayer Aktiengesellschaft, priority 2018, published 2022).
pIC50: −log10 of the molar value. Structures can show the parent of a compound that is named as a salt.

biological target: T1, human EP3 receptor (Homo sapiens, UniProt P43115); test: Cellular in vitro assay for determining EP3 receptor activity (human EP3 cell line, sulprostone-stimulated calcium luminescence); format: cell-based; settings: CHO cells expressing human EP3 and mitochondrial Clytin; antagonist mode, sulprostone at EC50; read-out: EP3 CHO mtCLY ANTAG IC50
T1 construct: expressed in transfected cells; host or cells: CHO K1 (Chinese Hamster Ovary), stably co-transfected with Galpha16 and mitochondrial clytin
T1 sequence (P43115 1-390): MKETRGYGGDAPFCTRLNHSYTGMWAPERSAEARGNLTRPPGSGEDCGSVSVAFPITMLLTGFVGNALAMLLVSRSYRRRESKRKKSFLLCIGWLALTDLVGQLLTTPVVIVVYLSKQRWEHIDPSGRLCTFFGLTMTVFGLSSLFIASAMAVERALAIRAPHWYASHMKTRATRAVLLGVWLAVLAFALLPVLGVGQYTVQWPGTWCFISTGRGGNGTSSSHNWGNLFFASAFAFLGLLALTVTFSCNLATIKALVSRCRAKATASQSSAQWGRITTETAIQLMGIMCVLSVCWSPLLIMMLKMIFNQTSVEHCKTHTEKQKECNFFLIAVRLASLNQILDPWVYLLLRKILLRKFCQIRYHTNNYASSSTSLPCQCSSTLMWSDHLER
Outline: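 CHO K1 cells stably expressing human EP3 with Gα16 and mitochondrial Clytin, loaded overnight with coelenterazine. Compounds added 10 min before sulprostone at its EC50; antagonism read immediately as reduced calcium-driven luminescence, quadruplicate points.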

Row | SMILES | pIC50
1 | COCc1c(C(=O)NC2(c3ccc(F)cc3)CN(C)C2)nn2cc(-c3ccc4c(c3)OCCO4)[nH]c(=O)c12 [6-628] | 8.18
2 | O=C(N[C@H](CCO)c1ccc(F)cc1)c1cc2c(=O)[nH]c(-c3ccc(Cl)c(Cl)c3)cn2n1 [6-635] | 8.39
3 | Cc1ccc(-c2cn3nc(C(=O)N[C@H](CN4CC[C@@H](F)C4)c4ccccc4)cc3c(=O)[nH]2)cc1F [6-637] | 8.44
4 | Cc1ccc(-c2cn3nc(C(=O)N[C@H](CCO)c4ccc(F)cc4)cc3c(=O)[nH]2)cc1F [6-638] | 8.87
5 | Cc1ccc(-c2cn3nc(C(=O)N[C@@H](c4ccccc4)C(C)(C)O)cc3c(=O)[nH]2)cc1F [6-640] | 8.03
6 | Cc1ccc(-c2cn3nc(C(=O)N[C@H](CN4CC[C@H](F)C4)c4ccccc4)cc3c(=O)[nH]2)cc1F [6-643] | 8.71
7 | Cc1cc(-c2cn3nc(C(=O)NCC(O)(C(F)(F)F)C(F)(F)F)c(C4CC4)c3c(=O)[nH]2)ccc1F [6-658] | 8.15
8 | C[C@@H](NC(=O)c1cc2c(=O)[nH]c(-c3ccc4c(c3)ncn4C)cn2n1)c1ccc(F)cc1 [6-660] | 8.52
9 | Cc1ccc(-c2cn3nc(C(=O)NCCN(C)C4CC4)c(C4CC4)c3c(=O)[nH]2)cc1C [6-661] | 8.84
10 | Cc1ccc(-c2[nH]c(=O)c3c(C4CC4)c(C(=O)N[C@@H](c4ccc(F)cc4)C(F)(F)CO)nn3c2F)cc1Cl [6-662] | 8.21
11 | Cc1ccc(-c2[nH]c(=O)c3c(C4CC4)c(C(=O)N[C@H](C)c4ccc(F)cc4)nn3c2F)cc1Cl [6-663] | 8.41
12 | CN1CC(NC(=O)c2nn3cc(-c4ccc(Cl)c(C(F)F)c4)[nH]c(=O)c3c2C2CC2)(c2ccc(F)cc2)C1 [6-665] | 8.51
13 | O=C(N[C@H](CCO)c1ccc(F)cc1)c1nn2cc(-c3ccc(Cl)c(C(F)F)c3)[nH]c(=O)c2c1C1CC1 [6-668] | 8.96
14 | CC(C)c1c(C(=O)N[C@H](CCO)c2ccc(F)cc2)nn2cc(-c3ccc(Cl)cc3)[nH]c(=O)c12 [6-670] | 8.70
15 | CN1CC(NC(=O)c2nn3cc(-c4ccc(Cl)cc4)[nH]c(=O)c3c2C2CC2)(c2ccc(F)cc2)C1 [6-673] | 8.48
16 | O=C(N[C@H](CCO)c1ccc(F)cc1)c1nn2cc(-c3ccc(Cl)cc3)[nH]c(=O)c2c1C1CC1 [6-674] | 9.10
17 | O=C(N[C@@H](c1ccc(F)cc1)C(F)(F)CO)c1nn2cc(-c3ccc(Cl)cc3)[nH]c(=O)c2c1C1CC1 [6-675] | 8.82
18 | O=C(N[C@@H](c1ccc(F)cc1)C(F)(F)CO)c1nn2cc(-c3cccc(Cl)c3)[nH]c(=O)c2c1C1CC1 [6-678] | 8.28
19 | O=C(N[C@H](CCO)c1ccc(F)cc1)c1nn2cc(-c3cccc(Cl)c3)[nH]c(=O)c2c1C1CC1 [6-679] | 8.96
20 | CC(C)c1c(C(=O)N[C@H](CCO)c2ccc(F)cc2)nn2cc(-c3cccc(Cl)c3)[nH]c(=O)c12 [6-682] | 8.96
21 | CC(C)c1c(C(=O)NC2(c3ccc(F)cc3)CN(C)C2)nn2cc(-c3cccc(Cl)c3)[nH]c(=O)c12 [6-684] | 8.47
22 | C[C@@H](NC(=O)c1cc2c(=O)[nH]c(-c3ccc4ccccc4c3)cn2n1)c1ccc(C(F)(F)F)cc1 [Example 1-1, 6-(Naphthalen-2-yl)-4-oxo-N-{(1R)-1-[4-(trifluoromethyl)phenyl]ethyl}-4,5-dihydropyrazolo[1,5-a]-pyrazine-2-carboxamide] | 8.80
23 | COC[C@H](NC(=O)c1cc2c(=O)[nH]c(-c3ccc4ccccc4c3)cn2n1)c1ccccc1 [Example 1-2, N-[(1R)-2-Methoxy-1-phenylethyl]-6-(naphthalen-2-yl)-4-oxo-4,5-dihydropyrazolo[1,5-a]pyrazine-2-carboxamide] | 8.60
24 | CC(C)(O)[C@@H](NC(=O)c1cc2c(=O)[nH]c(-c3ccc4ccccc4c3)cn2n1)c1ccccc1 [Example 1-3, N-[(1S)-2-Hydroxy-2-methyl-1-phenylpropyl]-6-(naphthalen-2-yl)-4-oxo-4,5-dihydropyrazolo-[1,5-a]pyrazine-2-carboxamide] | 9.19
25 | CCC1(NC(=O)c2cc3c(=O)[nH]c(-c4ccc5ccccc5c4)cn3n2)CN(C(=O)OC(C)(C)C)C1 [Example 1-5, tert.-Butyl 3-ethyl-3-({[6-(naphthalen-2-yl)-4-oxo-4,5-dihydropyrazolo[1,5-a]pyrazin-2-yl]carbonyl}-amino)azetidine-1-carboxylate] | 8.57
26 | COc1ccc(C2(NC(=O)c3cc4c(=O)[nH]c(-c5ccc6ccccc6c5)cn4n3)CN(C(=O)OC(C)(C)C)C2)cn1 [Example 1-6, tert.-Butyl 3-(6-methoxypyridin-3-yl)-3-({[6-(naphthalen-2-yl)-4-oxo-4,5-dihydropyrazolo[1,5-a]-pyrazin-2-yl]carbonyl}amino)azetidine-1-carboxylate] | 8.89
27 | O=C(N[C@H](CN1CCOCC1)c1ccccc1)c1cc2c(=O)[nH]c(-c3ccc4ccccc4c3)cn2n1 [Example 1-7, N-[(1S)-2-(Morpholin-4-yl)-1-phenylethyl]-6-(naphthalen-2-yl)-4-oxo-4,5-dihydropyrazolo[1,5-a]-pyrazine-2-carboxamide formic acid salt] | 8.77
28 | CC(C)c1c(C(=O)N[C@H](C)c2ccc(F)cc2)nn2cc(-c3ccc4ccccc4c3)[nH]c(=O)c12 [Example 1-8, N-[(1R)-1-(4-Fluorophenyl)ethyl]-6-(naphthalen-2-yl)-4-oxo-3-(propan-2-yl)-4,5-dihydropyrazolo-[1,5-a]pyrazine-2-carboxamide] | 8.87
29 | CC(C)c1c(C(=O)N[C@@H](C)c2ccc(F)cc2)nn2cc(-c3ccc4ccccc4c3)[nH]c(=O)c12 [Example 1-9, N-[(1S)-1-(4-Fluorophenyl)ethyl]-6-(naphthalen-2-yl)-4-oxo-3-(propan-2-yl)-4,5-dihydropyrazolo-[1,5-a]pyrazine-2-carboxamide] | 8.63
30 | COc1ccc(CNC(=O)c2nn3cc(-c4ccc5ccccc5c4)[nH]c(=O)c3c2C(C)C)cc1OC [Example 1-10, N-(3,4-Dimethoxybenzyl)-6-(naphthalen-2-yl)-4-oxo-3-(propan-2-yl)-4,5-dihydropyrazolo[1,5-a]-pyrazine-2-carboxamide] | 9.24

Further lines, results first:

Row | pIC50 | SMILES
31 | 8.00 | COCc1c(C(=O)N[C@@H](c2ccc(F)cc2)C(C)(C)O)nn2cc(-c3ccc(Cl)c(F)c3)[nH]c(=O)c12 [6-625]
32 | 8.99 | COCc1c(C(=O)N[C@@H](c2ccc(F)cc2)C(F)(F)CO)nn2cc(-c3ccc(C)c(Cl)c3)[nH]c(=O)c12 [6-626]
33 | 9.24 | COCc1c(C(=O)N[C@@H](c2ccc(F)cc2)C(C)(C)O)nn2cc(-c3ccc(C)c(Cl)c3)[nH]c(=O)c12 [6-627]
34 | 8.07 | O=C(N[C@@H](c1ccc(F)cc1)C(F)(F)CO)c1nn2cc(-c3ccc(Cl)c(F)c3)[nH]c(=O)c2c1C(F)F [6-631]
35 | 8.20 | CC(C)(O)[C@@H](NC(=O)c1nn2cc(-c3ccc(Cl)c(F)c3)[nH]c(=O)c2c1C(F)F)c1ccc(F)cc1 [6-632]
36 | 8.46 | Cc1ccc(-c2cn3nc(C(=O)N[C@@H](c4ccc(F)cc4)C(C)(C)O)c(CC(F)(F)F)c3c(=O)[nH]2)cc1F [6-633]
37 | 8.43 | Cc1ccc(-c2cn3nc(C(=O)N[C@@H](c4ccc(F)cc4)C(C)(C)O)c(C)c3c(=O)[nH]2)nc1C [6-634]
38 | 8.12 | CC(C)(O)[C@@H](NC(=O)c1cc2c(=O)[nH]c(-c3ccc(Cl)c(Cl)c3)cn2n1)c1ccc(F)cc1 [6-636]
39 | 8.18 | Cc1ccc(-c2cn3nc(C(=O)N[C@@H](c4ccc(F)cc4)C(C)(C)O)cc3c(=O)[nH]2)cc1F [6-644]
40 | 8.22 | Cc1ccc(-c2cn3nc(C(=O)N[C@@H](c4ccc(F)cc4)C(F)(F)CO)cc3c(=O)[nH]2)cc1F [6-645]
41 | 8.27 | Cc1ccc(-c2cn3nc(C(=O)N[C@@H](c4ccc(F)cc4)C(C)(C)O)cc3c(=O)[nH]2)c(F)c1C [6-646]
42 | 8.52 | Cc1cc(-c2cn3nc(C(=O)N[C@@H](c4ccc(F)cc4)C(F)(F)CO)c(C(F)(F)F)c3c(=O)[nH]2)ccc1F [6-647]
43 | 8.56 | Cc1cc(-c2cn3nc(C(=O)N[C@@H](c4ccc(F)cc4)C(C)(C)O)c(C(F)(F)F)c3c(=O)[nH]2)ccc1F [6-648]
44 | 8.00 | CC(C)(O)[C@@H](NC(=O)c1nn2cc(-c3ccc(Cl)c(F)c3)[nH]c(=O)c2c1C(F)(F)F)c1ccc(F)cc1 [6-649]
45 | 8.07 | Cn1cnc2cc(-c3cn4nc(C(=O)N[C@@H](c5ccc(F)cc5)C(C)(C)O)c(C(F)(F)F)c4c(=O)[nH]3)ccc21 [6-659]
46 | 8.28 | Cc1ccc(-c2[nH]c(=O)c3c(C4CC4)c(C(=O)N[C@@H](c4ccc(F)cc4)C(C)(C)O)nn3c2F)cc1Cl [6-664]
47 | 8.85 | CC(C)(O)[C@@H](NC(=O)c1nn2cc(-c3ccc(Cl)c(C(F)F)c3)[nH]c(=O)c2c1C1CC1)c1ccc(F)cc1 [6-666]
48 | 8.77 | CC(C)c1c(C(=O)N[C@@H](c2ccc(F)cc2)C(C)(C)O)nn2cc(-c3ccc(Cl)cc3)[nH]c(=O)c12 [6-672]
49 | 8.45 | CC(C)(O)[C@@H](NC(=O)c1nn2cc(-c3ccc(Cl)cc3)[nH]c(=O)c2c1C1CC1)c1ccc(F)cc1 [6-676]
50 | 9.35 | CC(C)(O)[C@@H](NC(=O)c1nn2cc(-c3cccc(Cl)c3)[nH]c(=O)c2c1C1CC1)c1ccc(F)cc1 [6-677]
51 | 8.97 | CC(C)c1c(C(=O)N[C@@H](c2ccc(F)cc2)C(C)(C)O)nn2cc(-c3cccc(Cl)c3)[nH]c(=O)c12 [6-683]
